Key:
BALB/c mice = assay: Immunity experiment: thymus weight/body weight ratio; format: in vivo; details: male BALB/c mice, gavage daily, three months; Example 1 0.50, selenium-enriched yeast 0.05, yeast beta-glucan 0.15, Vitamin C 0.20, Vitamin E 0.10 g/kg·bw
Method: (§1) 60 male BALB/c mice of clean grade with body weight 18-22 g were purchased from Shanghai Xipu'er-Bikai Experimental Animal Co., Ltd. (Add: […] Physiological saline was administered to the blank group. Three months later, a plurality of immune index of mice comprising thymus weight/body weight ratio, humoral immunity function (antibody index) and cellular immune function (NK cell activity) were measured. The measurement method was the same as the method for evaluating health food.

spleen cells = assay: Immunity experiment: antibody cell detection (plaque forming cells), humoral immunity function; format: in vivo; details: male BALB/c mice, gavage daily, three months; Example 1 0.50, selenium-enriched yeast 0.05, yeast beta-glucan 0.15, Vitamin C 0.20, Vitamin E 0.10 g/kg·bw
Method: as §1

[1] = test system: lipid peroxide (malondialdehyde (MDA)); assay: Anti-oxidation experiment: content of lipid peroxide (MDA); format: in vivo, human
Method: (§2) During the experiment, all the volunteers kept original living and dietary habits. […] Subsequently, the content of lipid peroxide (malondialdehyde (MDA)), superoxide dismutase (SOD) activity and glutathione peroxidase (GSH-PX) activity of the volunteers were measured. The measurement method was the same as the method for evaluating health food.

[2] = test system: superoxide dismutase (SOD); assay: Anti-oxidation experiment: SOD activity; format: in vivo, human
Method: as §2

NK cell = assay: Immunity experiment: NK cell activity, cellular immune function; format: in vivo; details: male BALB/c mice, gavage daily, three months; Example 1 0.50, selenium-enriched yeast 0.05, yeast beta-glucan 0.15, Vitamin C 0.20, Vitamin E 0.10 g/kg·bw
Method: as §1

[3] = test system: glutathione peroxidase (GSH-PX); assay: Anti-oxidation experiment: GSH-Px activity; format: in vivo, human
Method: as §2

[4] = volunteers 45-65 years, before administration (baseline)
[5] = volunteers, after administration two times a day for three months, Example 2 500 mg, selenium-enriched yeast 150 mg, yeast beta-glucan 450 mg, Vitamin C 2.5 mg, Vitamin E 2.5 mg each time

Row | Molecule | Thymus weight/body weight ratio (BALB/c mice) [mg/g] | Antibody cell detection Quantity of plaque forming cells (spleen cells) | MDA content [1, 4] [nmol/mL] | MDA content [1, 5] [nmol/mL] | SOD activity [2, 4] [U/gHb] | SOD activity [2, 5] [U/gHb] | NK cell activity (NK cell) [%] | GSH-Px activity [3, 4] [U/mL] | GSH-Px activity [3, 5] [U/mL]
1 | O=C1O[C@H]([C@@H](O)CO)C(O)=C1O [Vitamin C] | 1.80 ± 0.57 | 87 ± 41 /106 spleen cells | 5.77 ± 0.65 | 5.75 ± 0.60 | 13335.1 ± 1466.6 | 13345.5 ± 1472.7 | 18.18 ± 4.14 | 121.6 ± 15.67 | 123.7 ± 15.33
2 | Vitamin E | 1.90 ± 0.33 | 96 ± 21 /106 spleen cells | 5.74 ± 0.55 | 5.72 ± 0.65 | 13297.0 ± 2193.7 | 13375.6 ± 2014.7 | 18.02 ± 5.31 | 120.8 ± 13.12 | 121.9 ± 9.78
